Reference: US20220265775A1, “COMPOSITIONS AND METHODS FOR TREATING PULMONARY EDEMA OR LUNG INFLAMMATION” (priority 2019, published 2022)

Legend:
RLE-6TN cells = assay: RLE-6TN cell survival under hyperoxia and recovery, viable cells counted by trypan blue exclusion; format: cell-based, rat
Experimental: FIG. 7. […] The cells were cultured in DMEM/F12 with 10% FBS in 21% O2 and 5% CO2 overnight. […] The viable cells are counted immediately after 72-hour hyperoxia exposure. Cell viability is assessed with trypan blue. The amount of viable cells under specific conditions is presented as a percentage of the cell number from hyperoxia alone. Data are mean±s.d. of four independent experiments with *=P<0.05; **=P<0.01.
FIG. 8. […] In both (A) and (B), the number of viable cells under specific conditions is presented as a percentage of the cell number related to hyperoxia alone in the same experiment. Data are mean s.d. of four independent experiments with *=P<0.05; **=P<0.01.
FIG. 10. HO-1 upregulation is required for T3-increased RLE-6TN cell survival in hyperoxia. […] The cells were then collected for Western Blot analysis. (B) The cells were incubated in 21% O2 and 5% CO2 for 72 hours in the present of HO-1 inhibitor Tin Protoporphyrin IX (10^−6M). […] Cell viability is assessed with trypan blue. The number of viable cells under specific conditions is presented as a percentage of the cell number related to hyperoxia alone. Data are mean±s.d. of three independent experiments with *=P<0.05; **=P<0.01.
FIG. 11. PI3K inhibitor wortmannin blocked T3-induced cell survival in hyperoxia. […] Cell viability is assessed with trypan blue. The number of viable cells under specific conditions is presented as a percentage of the cell number related to hyperoxia alone. Data are mean±s.d. of four independent experiments with *=P<0.05; **=P<0.01.
At the end of the hyperoxia exposure period, the viable cells were counted by trypan blue dye exclusion.

Nrf2 = assay: Western blot of total cellular and nuclear Nrf2 protein in RLE-6TN cells under hyperoxia; format: cell-based, rat; conditions: 24 hours of hyperoxia, 10^−6 M T3
Experimental: FIG. 9. […] The cells were then collected for Western Blot analysis. (A) Cellular total Nrf2 protein; (B) Nuclear Nrf2.
Nuclei were extracted with NE-PER nuclear and cytoplasmic extraction reagents kit (Thermo Fisher Scientific, Inc., Waltham, Mass.) following the manufacturer's instruction.
The cells were lysed in lysis buffer containing 20 mM Tris HCl (pH 7.5), 150 mM NaCl, 1 mM EDTA, 1 mM EGTA, 1% (vol/vol) Triton X-100 with protease inhibitors (1 mM PMSF, 2 μg/ml pepstatin, and 10 μg/ml each of aprotinin and leupeptin), and phosphatase inhibitors (2.5 mM sodium pyrophosphate, 1 mM β-glycerophosphate, and 1 mM Na3VO4). The lysate was drawn 10 times through a 25-gauge needle on ice for further lysis and then was centrifuged at 13,000 rpm for 15 minutes at 4° C. The supernatant was collected, and the protein concentrations were determined by use of the BCA protein assay kit (Sigma-Aldrich, St. Louis, Mo.). Immediately after this step, equal amounts of protein were subjected to Western blotting analysis.

[1] = Serum total T3 measurement (RIA) in hyperoxia-exposed rats; format: in vivo, Sprague Dawley rats; conditions: rats exposed to 95% oxygen for 60 hours, intraperitoneal T3 supplementation 50 μg/kg bodyweight/24 hours, vs hyperoxia alone
Experimental: FIG. 13. […] Rats were exposed to ˜ 95% of oxygen for 60 hours. […] RA: room air control.
All experimental protocols for animal treatments were approved by the University of Minnesota Institutional Animal Care and Use Committee. […] The room-air control rats were kept in the University animal housing facility. At the end of hyperoxic exposure, rats were sacrificed by intraperitoneal pentobarbital injection, and the lungs were harvested; the right lobes were allocated for histopathology, measurement of lung tissue myeloperoxidase (MPO) activity and wet-to-dry weight ratio. The left lobes underwent bronchoalveolar lavage (BAL) to determine BAL protein concentrations and differential cell counts.
Blood samples were collected at the end of 60 hours of hyperoxia and were centrifuged at 13,000 rpm for 30 minutes at 4° C. Supernatant was stored at −20° C.

Q: With `N[C@@H](Cc1cc(I)c(Oc2ccc(O)c(I)c2)c(I)c1)C(=O)O` [T3, triiodothyronine] as the compound, how does the “number of viable AT2 cells at 48 hours of recovery” value (RLE-6TN cells; 90% oxygen for 24 or 48 hours, compound present only during recovery in 21% O2) read?
A: The value was “significantly increased the number of viable AT2 cells”.

Q: What about the “increase in number of surviving cells compared with hyperoxia control” value (RLE-6TN cells; 90% oxygen for 72 hours, 10^−6M) of the same compound?
A: Its value is about 2.5 fold.

Q: And the “protective effect on viable AT2 cell number after recovery in room air” value (RLE-6TN cells; hyperoxia 72 hours with T3, then room air 72 hours with no supplemental T3)?
A: The value was “persisted and was of similar magnitude”.

Q: And the “nuclear Nrf-2 protein expression” value (Nrf2)?
A: Its value is “significantly increased both total cellular and nuclear Nrf-2 protein expression”.

Q: And the “total cellular Nrf-2 protein expression” value (Nrf2)?
A: The value was “significantly increased both total cellular and nuclear Nrf-2 protein expression”.

Q: What about the “serum total T3 level” value [1] of the same compound?
A: The value was “augmented serum total T3”.
